Measurements taken from patent publication US7365096B2, “Methods for selectively inhibiting Janus tyrosine kinase 3 (Jak3)” (Board of Regents, The University of Texas System, priority 2002, dated 2008).
“Also recorded” adds a separate entry of the source.

How the values were obtained:
NF-kB = assay: TNF-α-induced NF-kB DNA binding, EMSA; assay type: cell-based, human; settings: same treatment set
Procedure: (§1) EMSA. Electrophoretic mobility shift assay (EMSA). Drug or vehicle control (DMSO) treated cells were pelleted by centrifugation (20,000×g for 1 min at 4° C.) and subsequently washed in five volumes of 10 mM HEPES, pH 7.9, 10 mM KCl, 1.5 mM MgCl2, 0.5 mM DTT, […], 5 μg/ml aprotinin, 1 μg/ml pepstatin A and 2 μg/ml leupeptin, centrifuged, then lysed in the same buffer supplemented with 1% NP-40 and incubated for 20 min on ice. The nuclei-containing pellet was resuspended in equal volumes of low salt buffer (10 mM HEPES, 25% glycerol, 1.5 mM MgCl2, 20 mM KCl, 0.5 mM DTT, 0.2 mM EDTA and protease inhibitors) and high salt buffer (low salt buffer containing 800 mM KCl). This fraction was then isolated by centrifugation at 4° C. for 10 min and supernatants saved as nuclear protein extract and stored at −70° C. Gel mobility shift assays were performed to detect Stat5a/b DNA binding activity using a Stat5 DNA binding sequence corresponding to the promoter of the β-casein gene (5′-[…]-3′) or an NF-kB binding element (5′-[…]-3′). Both probes were end-labeled with [^32P]dATP. […]
(§2) In FIG. 9A, it can be seen that NC1153 inhibits Jak3 driven transcription factor-Stat5a/b in PHA activated T-cells treated with increasing concentrations of NC1153 in a dose dependent manner as measured via EMSA analysis (upper panel). […]

Stat5a/b = Stat5a/b DNA binding, EMSA in PHA activated T-cells; assay type: cell-based, human; settings: increasing concentrations
Procedure: as §1, §2

CN(C)CC1CCCCCCCCCC(CN(C)C)C1=O (mixture of isomers) [649641P (NC1153)]
NF-kB activation / DNA binding by TNF-α (EMSA) (NF-kB): not affected; also recorded: no effect
NF-kB activation / DNA binding by TNF-α (EMSA) (NF-kB; listed as NC1153): not affected
Stat5a/b DNA binding (EMSA) (Stat5a/b): inhibits; also recorded: greatly impaired
Stat5a/b DNA binding (EMSA) (Stat5a/b; listed as NC1153): inhibits
